Data taken from BindingDB's records for doi:10.1016/j.vascn.2014.07.002 (University of Oxford, 2014).

Columns and labels:
[1] = Inhibition of rapid delayed inward rectifying potassium current (IKr) measured using manual patch clamp assay
[2] = molecular target: Potassium voltage-gated channel subfamily H member 2 (Homo sapiens, UniProt Q12809); test: Inhibition of rapid delayed inward rectifying potassium current (IKr) measured using manual patch clamp assay
Chain of Potassium voltage-gated channel subfamily H member 2 (Q12809 whole entry): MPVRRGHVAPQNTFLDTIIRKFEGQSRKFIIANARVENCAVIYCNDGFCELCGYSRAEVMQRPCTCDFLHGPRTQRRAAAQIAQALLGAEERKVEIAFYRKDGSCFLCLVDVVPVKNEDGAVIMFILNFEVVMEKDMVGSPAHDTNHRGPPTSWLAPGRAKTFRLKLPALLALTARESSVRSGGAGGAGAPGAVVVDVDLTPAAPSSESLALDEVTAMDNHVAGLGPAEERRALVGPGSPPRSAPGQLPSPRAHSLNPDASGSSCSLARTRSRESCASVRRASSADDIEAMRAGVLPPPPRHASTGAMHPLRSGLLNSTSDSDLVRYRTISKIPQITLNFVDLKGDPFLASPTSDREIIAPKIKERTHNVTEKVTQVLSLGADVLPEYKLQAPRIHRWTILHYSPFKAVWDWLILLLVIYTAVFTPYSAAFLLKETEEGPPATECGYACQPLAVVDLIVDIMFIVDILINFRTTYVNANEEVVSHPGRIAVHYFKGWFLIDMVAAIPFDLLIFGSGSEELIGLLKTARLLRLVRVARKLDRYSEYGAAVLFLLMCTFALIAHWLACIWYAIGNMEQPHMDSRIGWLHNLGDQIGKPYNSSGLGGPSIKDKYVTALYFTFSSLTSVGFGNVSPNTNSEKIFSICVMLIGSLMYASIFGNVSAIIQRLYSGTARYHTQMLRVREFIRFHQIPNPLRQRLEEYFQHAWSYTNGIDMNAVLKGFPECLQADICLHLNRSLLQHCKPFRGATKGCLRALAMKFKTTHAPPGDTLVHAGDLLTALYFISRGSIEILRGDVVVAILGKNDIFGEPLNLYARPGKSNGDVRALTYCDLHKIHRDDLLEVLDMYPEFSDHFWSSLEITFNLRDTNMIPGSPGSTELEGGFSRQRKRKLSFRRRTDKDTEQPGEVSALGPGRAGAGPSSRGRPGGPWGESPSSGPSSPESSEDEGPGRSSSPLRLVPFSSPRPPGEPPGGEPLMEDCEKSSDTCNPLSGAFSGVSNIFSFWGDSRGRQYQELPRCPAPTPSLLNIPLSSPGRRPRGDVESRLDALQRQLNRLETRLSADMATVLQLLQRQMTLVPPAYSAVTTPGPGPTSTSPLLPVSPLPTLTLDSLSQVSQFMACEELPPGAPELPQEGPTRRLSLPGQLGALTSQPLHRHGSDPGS

SMILES	IC50 [1]	IC50 [2]
C[C@H]1CN(C[C@H](Cc2ccccc2)C(=O)NCC(=O)O)CC[C@@]1(C)c1cccc(O)c1 [ADL 8-2698]	0.794 mM	
O=C(O)c1ccc(-n2nc(-c3ccccc3O)nc2-c2ccccc2O)cc1 [CHEBI:49005]		3.98 mM
